{"source": "patent US8999954B2", "about": "“Inhibitors of polysialic acid de-N-acetylase and methods for using the same” (Childern's Hospital & Research Center at Oakland, priority 2007, dated 2015)", "key": {"[1]": {"system": "Jurkat T-cell leukemia cells", "test": "Cell viability assay (Guava ViaCount, flow cytometry)", "format": "cell-based, human", "conditions": "for EC50: Homo sapiens, read-out: concentration for half-maximal decrease in viability; for EC50 / viability of Jurkat cells: 24 hrs incubation; for apoptosis and cell death in Jurkat cells / cell viability of Jurkat cells: 24 hrs, concentration of 10 mM (FIG. 7); for viability of Jurkat cells: concentration in cell culture media varied (FIG. 3, 4, 9)", "procedure": "(§1) Human melanoma SK-MEL 28, neuroblastoma CHP-134, and T-cell leukemia Jurkat cell lines were obtained from ATCC (Manassas, Va.). All cell lines were grown in RPMI 1640 media (UCSF Cell Culture Facility, San Francisco, Calif.), supplemented with 10% heat-inactivated fetal bovine serum (Gemini Bio-Products, West Sacramento, Calif.), non-essential amino acids, 100 units/ml penicillin/streptomycin, 110 μg/ml sodium pyruvate, and 2 mM glutamine (UCSF Cell Culture Facility). Jurkat cells were grown to a concentration of not more than 10^6 cells/ml and adherent SK-MEL 28 and CHP-134 cells to a concentration of not more than 5×10^4 cells/cm^2.\n(§2) The effect of inhibitors of PSA de-N-acetylase on the viability of human tumor cell lines in culture was measured using a cell viability assay. Cells were incubated with N-acyl or methanesulfonyl hexosamine derivatives for 24 hours. Jurkat cells were incubated at a concentration of 2×10^5 cells/ml in round-bottom 96-well plates (Falcon), 200 μl/well. Adherent cells were incubated at a concentration of 1×10^5 cells/ml in flat-bottom 96-well plates (Nunc). Plates were then spun at 1,000×g for 5 minutes. SK-MEL 28 cells were release from the plate using a trypsin/EDTA solution (UCSF Cell Culture Facility). CHP-134 cells were released using CDR (Guava Technologies). All cells were resuspended in Guava ViaCount reagent and read on a Guava EasyCyte flow cytometer, using the Guava ViaCount assay (all from Guava Technologies)."}, "[2]": {"system": "CHP-134 neuroblastoma cells", "test": "Cell viability assay (Guava ViaCount, flow cytometry)", "format": "cell-based, human", "conditions": "for EC50: Homo sapiens, 24 hrs incubation, read-out: concentration for half-maximal decrease in viability; for EC50 / induction of apoptosis: CHP-134 cells", "procedure": "as §1, §2"}, "[3]": {"system": "SK-MEL 28 melanoma cells", "test": "Cell viability assay (Guava ViaCount, flow cytometry)", "format": "cell-based, human", "procedure": "as §1, §2"}, "[4]": {"system": "Jurkat T-cell leukemia cells", "test": "Cell viability assay (Guava ViaCount, flow cytometry)", "format": "cell-based, human", "conditions": "96 hrs incubation, increasing concentrations (FIG. 8)"}, "[5]": {"target": "T1, membrane transporters for N-acetyl neuraminic acid (Homo sapiens, UniProt Q9NRA2)", "T1 sequence (Q9NRA2 1-495)": "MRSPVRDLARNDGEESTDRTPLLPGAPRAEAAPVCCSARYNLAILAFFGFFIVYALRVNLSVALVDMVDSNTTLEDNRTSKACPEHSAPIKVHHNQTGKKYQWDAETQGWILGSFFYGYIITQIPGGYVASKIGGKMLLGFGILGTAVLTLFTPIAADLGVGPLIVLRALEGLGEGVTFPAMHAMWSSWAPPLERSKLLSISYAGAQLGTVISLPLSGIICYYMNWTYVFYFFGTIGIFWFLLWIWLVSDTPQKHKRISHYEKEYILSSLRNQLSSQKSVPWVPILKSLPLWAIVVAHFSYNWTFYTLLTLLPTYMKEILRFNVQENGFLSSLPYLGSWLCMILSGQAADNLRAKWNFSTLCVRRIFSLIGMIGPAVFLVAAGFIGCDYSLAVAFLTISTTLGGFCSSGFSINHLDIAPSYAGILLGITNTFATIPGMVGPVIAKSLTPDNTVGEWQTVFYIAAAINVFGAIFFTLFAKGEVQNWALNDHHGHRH", "conditions": "lysosomal membrane transporter; Essentials of Glycobiology 1999; read-out: Michaelis constant, Km, for forming a substrate/transporter complex; cited from earlier work"}, "[6]": {"system": "SK-MEL 28 melanoma cells", "test": "Cell surface expression of N-propionyl PSA (SEAM 18 binding, flow cytometry)", "format": "cell-based, human", "conditions": "SK-MEL 28, 10 mM supplement in media, 24 hours (FIG. 2)", "procedure": "(§3) CHP-134, SK-MEL 28 and Jurkat cells were cultured in media containing N-propionyl galactosamine, N-propionyl mannosamine, or N-acetyl mannosamine (10 mM) or no supplement for 24 hours. To measure mAb binding, the cells were released from the plate, pelleted by centrifugation, washed with PBS, and fixed with 1% formaldehyde in PBS. All procedures were performed on ice. Cells were blocked with PBS containing 3% goat serum, then were incubated overnight at 4° C. with one of the following primary antibodies (˜1 μg/ml), diluted in 3% goat serum: irrelevant isotype control mAbs IgG2a or IgG2b (Southern Biotech), SEAM 3 (Granoff et al. J. Immunol. 1998, 160:5028), or SEAM 18 (Granoff et al. J. Immunol. 1998, 160:5028). Cells were then washed and labeled with goat-anti-mouse FITC (1:1000, Jackson Immunoresearch, West Grove, Pa.). Fluorescence was measured on a Guava EasyCyte flow cytometer, using the Guava ExpressPlus assay (Guava Technologies) and the results are expressed as the percent of cells that are positive for mAb binding."}, "[7]": {"system": "Jurkat T-cell leukemia cells", "test": "Cell surface expression of N-propionyl PSA (SEAM 18 binding, flow cytometry)", "format": "cell-based, human", "conditions": "10 mM supplement in media, 24 hours (FIG. 2)", "procedure": "as §3"}, "[8]": {"system": "CHP-134 neuroblastoma cells", "test": "Cell surface expression of N-propionyl PSA (SEAM 18 binding, flow cytometry)", "format": "cell-based, human", "conditions": "CHP-134, 10 mM supplement in media, 24 hours (FIG. 2)", "procedure": "as §3"}, "[9]": {"conditions": "96 hrs incubation, increasing concentrations (FIG. 8)"}, "[10]": {"conditions": "24 hours, concentration-dependent (FIG. 4)"}}}
{"molecule": "C=CC(=O)N[C@H]1C(O)O[C@H](CO)[C@H](O)[C@@H]1O", "note": "(some centres unmarked) [GalNAcryl, N-Acryl Galactosamine]", "values": [{"measurement": "EC50", "setting": "[1]; Jurkat cells", "result": 3000, "unit": "µM"}, {"measurement": "EC50", "setting": "[2]", "result": 3000, "unit": "µM"}]}
{"molecule": "CS(=O)(=O)N[C@H]1C(O)O[C@H](CO)[C@H](O)[C@@H]1O", "note": "(some centres unmarked) [GalNMeSul, N-Methyanesulfonyl Galactosamine]", "values": [{"measurement": "cell viability of SK-MEL 28 cells", "setting": "[3]; [9]", "result": "reduced"}, {"measurement": "induction of apoptosis", "setting": "[3]; SK-MEL 28 cells", "result": "induce apoptosis"}, {"measurement": "apoptosis and cell death in Jurkat cells", "setting": "[1]", "result": "inducing apoptosis and cell death"}, {"measurement": "cell viability of Jurkat cells", "setting": "[1]", "result": "decrease cell viability"}, {"measurement": "induction of apoptosis", "setting": "[1]; Jurkat cells", "result": "induce apoptosis"}, {"measurement": "cell viability of CHP-134 cells", "setting": "[2]; [9]", "result": "reduced"}, {"measurement": "induction of apoptosis", "setting": "[2]", "result": "induce apoptosis"}, {"measurement": "cell viability of Jurkat cells", "setting": "[4]", "result": "reduced"}]}
{"molecule": "O=C(CCl)N[C@@H]1C(O)O[C@H](CO)[C@@H](O)[C@@H]1O", "note": "(some centres unmarked) [ManNClAc, N-Chloroacetyl Mannosamine]", "values": [{"measurement": "EC50", "setting": "[3]; Homo sapiens, SK-MEL 28 cells, 24 hrs incubation, read-out: concentration for half-maximal decrease in viability", "result": "~8000", "unit": "µM"}, {"measurement": "EC50", "setting": "[1]; Jurkat cells", "result": "~1000", "unit": "µM"}, {"measurement": "EC50", "setting": "[2]", "result": "~1000", "unit": "µM"}]}
{"molecule": "CS(=O)(=O)N[C@@H]1C(O)O[C@H](CO)[C@@H](O)[C@@H]1O", "note": "(some centres unmarked) [ManNMeSul, N-Methyanesulfonyl Mannosamine]", "values": [{"measurement": "cell viability of SK-MEL 28 cells", "setting": "[3]; [9]", "result": "reduced"}, {"measurement": "induction of apoptosis", "setting": "[3]; SK-MEL 28 cells", "result": "induce apoptosis"}, {"measurement": "apoptosis and cell death in Jurkat cells", "setting": "[1]", "result": "inducing apoptosis and cell death"}, {"measurement": "cell viability of Jurkat cells", "setting": "[1]", "result": "decrease cell viability"}, {"measurement": "induction of apoptosis", "setting": "[1]; Jurkat cells", "result": "induce apoptosis"}, {"measurement": "cell viability of CHP-134 cells", "setting": "[2]; [9]", "result": "reduced"}, {"measurement": "induction of apoptosis", "setting": "[2]", "result": "induce apoptosis"}, {"measurement": "cell viability of Jurkat cells", "setting": "[4]", "result": "reduced"}]}
{"molecule": "CC(=O)N[C@H]1[C@H]([C@H](O)[C@H](O)CO)OC(O)(C(=O)O)C[C@@H]1O", "note": "(some centres unmarked) [N-acetyl neuraminic acid]", "values": [{"measurement": "Km", "setting": "[5]", "result": "~500", "unit": "µM"}]}
{"molecule": "C=CC(=O)N[C@@H]1C(O)O[C@H](CO)[C@@H](O)[C@@H]1O", "note": "(some centres unmarked) [N-acryl mannosamine, N-Acryl Mannosamine]", "values": [{"measurement": "cell viability of SK-MEL 28 cells", "setting": "[3]; [10]", "result": "reducing the cell viability"}, {"measurement": "apoptosis and cell death of Jurkat cells", "setting": "[1]; 24 hours, four concentrations (FIG. 3)", "result": "inducing apoptosis and cell death"}, {"measurement": "viability of Jurkat cells", "setting": "[1]", "result": "reduces the viability"}, {"measurement": "sensitivity of Jurkat cells to killing relative to the other cell lines", "setting": "[1]; Jurkat vs CHP-134 and SK-MEL 28 (FIG. 4)", "result": "approximately 10 fold"}, {"measurement": "cell viability of CHP-134 cells", "setting": "[2]; [10]", "result": "reducing the cell viability"}]}
{"molecule": "CCC(=O)N[C@H]1C(O)O[C@H](CO)[C@H](O)[C@@H]1O", "note": "(some centres unmarked) [N-propionyl galactosamine]", "values": [{"measurement": "percentage of cells positive for SEAM 18 binding", "setting": "[6]", "result": "increases"}, {"measurement": "percentage of cells positive for SEAM 18 binding", "setting": "[7]", "result": "increases"}, {"measurement": "percentage of cells positive for SEAM 18 binding", "setting": "[8]", "result": "increases"}]}
{"molecule": "CCC(=O)N[C@@H]1C(O)O[C@H](CO)[C@@H](O)[C@@H]1O", "note": "(some centres unmarked) [N-propionyl mannosamine]", "values": [{"measurement": "percentage of cells positive for SEAM 18 binding", "setting": "[6]", "result": "increases"}, {"measurement": "percentage of cells positive for SEAM 18 binding", "setting": "[7]", "result": "increases"}, {"measurement": "percentage of cells positive for SEAM 18 binding", "setting": "[8]", "result": "increases"}]}
{"molecule": "Poly alpha (2→8) N-Acryl Neuraminic Acid [N-acryl PSA]", "values": [{"measurement": "viability of Jurkat cells", "setting": "[1]", "result": "reduced viability"}, {"measurement": "concentration required to induce cell death compared with N-acryl mannosamine", "setting": "[1]; Jurkat cells, 24 hrs (FIG. 9)", "result": "higher"}]}
